Source: PubChem BioAssay AID2060486 (Molecular Pharmacology Branch, DTP, NCI, 2025)
“And” between values parts separate entries of the source, which are not always exact repeats. Equal entries are not always repeated.

Test system: IGROV1 complex spheroids (HUVEC, MSC), viability % test/control
Experiment: Anticancer human tumor IGROV1 cell line growth inhibition [GQUAD];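 also: spheroids exposed to compounds for 7 days before readout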
Conditions: for viability, T/C: stronger effect = lower value; for IC50: curve of compound
From the text: DNA G-quadruplex Stabilizer Agents in Combinations in Complex Spheroids
A high-throughput screen of multi-cell type tumor spheroids was designed to identify active combinations of DNA G-quadruplex stabilizer agents and targeted small molecules. Complex spheroids include a stromal component modeled by human endothelial cells (HUVEC) and fibroblasts modeled by human mesenchymal stem cells (MSCs). The concentration ranges selected for each drug and investigational agent were based upon clinically achievable concentrations if the clinical Cmax of the agent was known.
Compounds. The drugs and investigational agents: pidnarulex (CX-5461; NSC782164), APTO-253 (NSC789042), BRACO-19 (NSC847499), peposertib (NSC802822), ceralasertib (NSC780249), elimusertib (NSC800525), camonsertib (NSC841442), AZD-1390 (NSC803789), olaparib (NSC753686), talazoparib (NSC767125), ART-558 (NSC835418), sotorasib (NSC818433), MRTX-1133 (NSC836407), SN-38 (NSC673596), topotecan (NSC609699), etoposide (NSC141540), doxorubicin (NSC123127), gemcitabine (NSC613327), 5-fluorouracil (NSC19893), paclitaxel (NSC125973), vemurafenib (NSC761431), panobinostat (NSC761190), R-306465 (JNJ-16241199; NSC773264), adavosertib (NSC754352), TP-3654 (NSC805149), carboplatin (NSC241240), KSQ-4279 (NSC840948), and staurosporine (NSC755774) were obtained from the National Cancer Institute (NCI) Developmental Therapeutics Program Chemical Repository (34). The FDA-approved anticancer drug set is available from the NCI Developmental Therapeutics Program. […] The stock solutions were prepared in dimethyl sulfoxide (DMSO, Sigma-Aldrich, St. Louis, MO, cat. D2650) at 800-fold the tested concentration and stored at -70 degrees C prior to their use. All drugs and investigational agents were tested over a range starting from a high concentration at or near the clinical Cmax and decreasing in half-log increments. If the clinical Cmax for an agent had not been determined, the highest concentration tested was 10 microM.
2.3 Cell Culture. All cells were maintained in an incubator at 37 degrees C and 5% CO2 with 95% humidity. The PDC lines were cultured according to standard operating procedures established by the NCI PDMR. All PDCs were thawed and cultured in Matrigel-coated flasks prepared with a working solution of 1X Ham's F-12 nutrient mix, without supplementation (Invitrogen, cat. 11765054), 100 U/mL penicillin-streptomycin (Invitrogen, cat. 15140122), and 2.5% Matrigel (Corning Inc., cat. 354248) for the first three passages. The 857933-349-R-J2-PDC line was cultured in 6C/Colon 1B media, which includes advanced DMEM/F-12 (Thermo Fisher Scientific, cat. 12634028), 10 mM HEPES (Thermo Fisher Scientific, cat. 15630080), 1X GlutaMAX supplement (Thermo Fisher Scientific, cat. 35050061), 0.1 mg/mL primocin (InvivoGen, cat. ant-pm-2), 10% defined fetal bovine serum, heat inactivated (HyClone Laboratories Inc., cat. SH30070.03HI), 50% L-WRN conditioned media (ATCC, cat. CRL-3276), 1.25 mM N-Acetyl-L-cysteine (Sigma-Aldrich, cat. A9165), 10 mM nicotinamide (Sigma-Aldrich, cat. N0636), 1X B-27 supplement (Thermo Fisher Scientific, cat. 17504044), 1X N-2 supplement (Thermo Fisher Scientific, cat. 17502048), 10 microM Y-27632 dihydrochloride (Tocris Bioscience, cat. 1254), and 50 ng/mL human EGF recombinant protein (Thermo Fisher Scientific, cat. PHG0311). The 485176-168-R4-J1-PDC line was cultured in Panc media, which includes all 6C/Colon 1B media components plus 100 ng/mL human FGF-10 (Thermo Fisher Scientific, cat. 100-26), 500 nM SB-431542 (Selleckchem, cat. S1067), and gastrin (Tocris, cat. 3006).
[…]

Row | SMILES | viability, T/C (compound 0.0316 µM) | viability, T/C (compound 0.1 µM) | viability, T/C (compound 0.316 µM) | viability, T/C (compound 1 µM) | viability, T/C (compound 3.16 µM) | viability, T/C (compound 10 µM) | IC50 | viability, T/C (compound 0.000999 µM) | viability, T/C (compound 0.00316 µM) | viability, T/C (compound 0.00999 µM) | viability, T/C (compound 0.0999 µM)
1 | C#Cc1c(F)ccc2cc(O)cc(-c3ncc4c(N5CC6CCC(C5)N6)nc(OCC56CCCN5CC(F)C6)nc4c3F)c12 (stereo not given) | 88.9% and 93.9% and 107% | 86.7% and 79.6% and 89.4% | 81.5% and 89.6% and 96.4% | 87.2% and 88.1% and 95.8% | 82% and 85% and 88.4% | 51.3% and 49% and 64.6% | > 10000 nM and 9690 nM | – | – | – | –
2 | C=CC(=O)N1CCN(c2nc(=O)n(-c3c(C)ccnc3C(C)C)c3nc(-c4c(O)cccc4F)c(F)cc23)C(C)C1 (stereo not given) | 102% and 105% and 117% | 95.2% and 95.3% and 106% | 113% and 105% and 110% | 93% and 104% and 122% | 79.5% and 98.5% and 104% | 82.3% and 101% and 92% | > 10000 nM | – | – | – | –
3 | C=CCn1c(=O)c2cnc(Nc3ccc(N4CCN(C)CC4)cc3)nc2n1-c1cccc(C(C)(C)O)n1 | 104% and 89% and 99.3% | 65.7% and 69.2% and 68.7% | 13.4% and 17.4% and 11.9% | 3.03% and 3.13% and 2.69% | 2.56% and 2.47% and 2.43% | 1.88% and 1.86% and 2.35% | 141 nM and 153 nM and 146 nM | – | – | – | –
4 | CC(=O)O[C@H]1C(=O)[C@@]2(C)[C@H]([C@H](OC(=O)c3ccccc3)[C@]3(O)C[C@H](OC(=O)[C@H](O)[C@@H](NC(=O)c4ccccc4)c4ccccc4)C(C)=C1C3(C)C)[C@]1(OC(C)=O)CO[C@@H]1C[C@@H]2O | 5.95% and 6.39% and 7.02% | 6.41% and 7.03% and 6.33% | 5.74% and 6.73% and 6.26% | 5.25% and 5.94% and 5.15% | 5.64% and 4.86% and 4.9% | 4.25% and 4.95% and 4.52% | < 31.6 nM | – | – | – | –
5 | CC(C)(O)C1CCC(Nc2ccc3ncc(-c4cccc(C(F)(F)F)c4)n3n2)CC1 (stereo not given) | 109% and 102% and 93.8% | 101% and 72.6% and 98.9% | 104% and 94.5% and 96.9% | 78.5% and 77.2% and 75.5% | 27% and 35.3% and 27.6% | 31.4% and 36.7% and 24.7% | 1940 nM and 2140 nM and 1840 nM | – | – | – | –
6 | CC(C)n1c(=O)n(C)c2cnc3cc(F)c(-c4ccc(OCCCN5CCCCC5)nc4)cc3c21 | 91.1% and 96.5% and 97% | 87.8% and 82.1% and 91.4% | 91.3% and 101% and 92.9% | 68.5% and 77.6% and 81.7% | 49.1% and 59.8% and 61.3% | 16.9% and 16.3% and 16.1% | 2820 nM and 4020 nM and 4200 nM | – | – | – | –
7 | CC1COCCN1c1cc(-c2ccnn2C)c2ccnc(-c3ccn[nH]3)c2n1 (stereo not given) | 81.8% and 73% and 68.8% | 26.6% and 25.6% and 26.2% | 11.2% and 10.4% and 10.8% | 7.62% and 7.53% and 5.64% | 4.7% and 5.08% and 4.64% | 3.56% and 3.83% and 3.46% | 61.9 nM and 55.2 nM and 52.7 nM | – | – | – | –
8 | CC1COCCN1c1cc(C2(O)CC3CCC(C2)O3)c2cnn(-c3ccn[nH]3)c2n1 (stereo not given) | 51.5% and 57.1% and 50.6% | 16.8% and 21.7% and 20.7% | 7.14% and 8.09% and 7.26% | 4.84% and 5.33% and 5.42% | 2.68% and 4.74% and 3.78% | 1.72% and 2.09% and 2.04% | 32.6 nM and 39.6 nM and 32.3 nM | – | – | – | –
9 | CC1COCCN1c1cc(C2(S(C)(=N)=O)CC2)nc(-c2ccnc3[nH]ccc23)n1 (stereo not given) | 105% and 96.1% and 78.7% | 73.3% and 84.4% and 94.9% | 95.4% and 94.3% and 89.6% | 59.5% and 44.8% and 50.7% | 12.6% and 14.1% and 58.1% | 7% and 6.85% and 8.5% | 1260 nM and 881 nM and 2970 nM | – | – | – | –
10 | CCCS(=O)(=O)Nc1ccc(F)c(C(=O)c2c[nH]c3ncc(-c4ccc(Cl)cc4)cc23)c1F | 105% (2×) and 108% | 96.1% and 96.3% and 95.1% | 106% and 108% and 97.5% | 103% and 80.5% and 96.6% | 66.4% and 67.2% and 56.1% | 21.1% and 13.8% and 16.5% | 4800 nM and 4380 nM and 3780 nM | – | – | – | –
11 | CC[C@@]1(O)C(=O)OCc2c1cc1n(c2=O)Cc2cc3c(CN(C)C)c(O)ccc3nc2-1 | 42.3% and 42.6% and 30.4% | – | 11.4% and 10.2% and 9.99% | – | – | – | 24.8 nM and 26.6 nM and 20.1 nM | 107% and 86.8% and 96.1% | 92.1% and 95.8% and 83% | 83.8% and 92.3% and 80.7% | 10.7% and 11.3% and 11%
12 | CCc1c2c(nc3ccc(O)cc13)-c1cc3c(c(=O)n1C2)COC(=O)[C@]3(O)CC | 8.77% and 9.76% and 9.57% | – | 1.32% and 1.27% and 1.78% | – | – | – | 1 nM and < 0.999 nM | 50.7% and 46.3% and 39% | 13.2% and 15% | 10.7% and 11.2% and 9.68% | 4.33% and 4.71% and 5.08%
13 | CN(C)c1ccc(Nc2c3ccc(NC(=O)CCN4CCCC4)cc3nc3cc(NC(=O)CCN4CCCC4)ccc23)cc1 | 103% [middle of 12 runs] | 101% [middle of 12 runs] | 103% [middle of 12 runs] | 100% [middle of 12 runs] | 87.4% [middle of 12 runs] | 52.3% [middle of 12 runs] | – | – | – | – | –
